From patent US20150216903A1, “COMPOUNDS FOR IMPROVED VIRAL TRANSDUCTION” (BLUEBIRD BIO, INC., priority 2012, published 2015)

Assays:
CD34+ cells [1] = experiment: Vector Copy Number analysis (qRT-PCR, viral LTR vs human beta-actin) after GFP+ lentivirus transduction; assay type: cell-based
Description: Pre-stimulated cells (Example 1) were counted after 18-24 hours of culture. The cells were collected and spun for 5 minutes at 1500 RPM. 1.2×10^6 pre-stimulated CD34^+ cells were resuspended in 60 uL 10× cytokines (1000 ng/mL SCF, 1000 ng/mL TPO, 1000 ng/mL FltL, and 300 ng/mL IL-3), 7.8 uL protamine sulfate, 111 uL viral supernatant, and 361.2 uL SCGM. 90 uL cell/virus suspension (about 200,000 cells) was added to each well of a standard non-adherent 96-well plate. dmPGE2 was added during this viral transduction step at a final concentration of 100 uM, 50 uM, 25 uM, 12.5 uM, 1 uM, or 0 uM.
After 24 hours of culture with virus and dmPGE2, cells were washed prior to subsequent functional validation assays. Washing was performed by transferring cells to a 96-well U-bottom plate and spinning for 5 minutes at 1500 RPM in a standard tabletop centrifuge. Media was aspirated and cells were resuspended in 200 uL SCGM. Cells were spun again for 5 minutes at 1500 RPM and media was aspirated. Cells were again resuspended in 200 uL SCGM then spun for 5 minutes at 1500 RPM, and again the media was aspirated. Particular functional validation assays are described below.
Washed cells were resuspended in 200 uL SCGM+lx cytokines (as described in Example 1) and transferred to a standard 12-well non-adherent tissue culture plate containing an additional 800 uL SCGM+lx cytokines Cells were maintained for an additional 6 days in a standard humidified tissue culture incubator (5% CO2) and then subjected Vector Copy Number analysis (Example 5) and FACS analysis. For FACS analysis, cells were assayed for the presence of a virally-encoded transgene, green fluorescent protein (GFP). The frequency of the virally-labeled cells within the pool of cultured cells was quantified as the frequency of GFP+ cells within the population. The mean fluorescence intensity of labeled cells was quantified.
Briefly, total genomic DNA was isolated from cells through standard protocols (for example, through DNEasy columns from Qiagen). Genomic DNA was subjected to quantitative real-time polymerase chain reaction (qRT-PCR) with TaqMan probes for viral LTR and human beta-actin. The Ct values for viral signal and beta-actin signal were normalized to a standardized control, and the number of viral copies per copy of beta actin were calculated. A linear relationship between the vector copy number and the mean fluorescence intensity (Example 4) was observed when a viral construct that encodes GFP was used.
Tables 3A-C indicate the dose-response of dmPGE2 in promoting viral transduction of CD34+ cells for three separate experiments. CD34+ cells were thawed and pre-stimulated with SCF, TPO, FltL, and IL3, then transduced (A) with GFP+ lentivirus at a multiplicity of infection of 25, (B) with GFP+ lentivirus at a multiplicity of infection of 5, or (C) transduced with an ALD (ABCD1)-expressing lentivirus at a multiplicity of infection of 25. Cells were exposed to dmPGE2 during the viral transduction step (24-48 hours of culture). Cells were then washed and analyzed by flow cytometry and PCR after approximately 1 week in culture. The percentage of cells positive for GFP (A, B) or ALD (C) via FACS staining is indicated, along with the mean fluorescent intensity (MFI) and vector copy number (VCN) (A, B).

CD34+ cells [2] = experiment: Time-course and dose-response of dmPGE2 in promoting viral transduction (GFP+ lentivirus, flow cytometry); assay type: cell-based, human; conditions: for percentage of cells positive for GFP: MOI 25
Description: MCD-34+ cells were thawed and pre-stimulated with SCF, TPO, FltL and IL3, then transduced with GFP+ lentivirus at a multiplicity of infection of 25. Cells were exposed to dmPGE2 during the viral transduction step (24-25 hours of culture; 24-26 hours of culture; 24-28 hours of culture; or 24-48 hours of culture) and then washed and analyzed by flow cytometry after approximately 1 week in culture. Alternatively, cells were exposed to dmPGE2 during the pre-stimulation step (22-24 hours of culture; 23-24 hours of culture).

CCCCC(C)(C)[C@H](O)/C=C/[C@H]1[C@H](O)CC(=O)[C@@H]1C/C=C\CCCC(=O)O [dmPGE2, 16,16-dimethyl PGE2]
VCN (CD34+ cells [1]; dmPGE2 12.5 uM during transduction, GFP lentivirus MOI 5): 0.18
VCN (CD34+ cells [1]; dmPGE2 12.5 uM during transduction, GFP lentivirus MOI 25): 1.5
VCN (CD34+ cells [1]; dmPGE2 25 uM during transduction, GFP lentivirus MOI 5): 0.21
VCN (CD34+ cells [1]; dmPGE2 25 uM during transduction, GFP lentivirus MOI 25): 1.7
VCN (CD34+ cells [1]; dmPGE2 50 uM during transduction, GFP lentivirus MOI 5): 0.715
VCN (CD34+ cells [1]; dmPGE2 50 uM during transduction, GFP lentivirus MOI 25): 2.2
VCN (CD34+ cells [1]; dmPGE2 100 uM during transduction, GFP lentivirus MOI 5): 0.83
VCN (CD34+ cells [1]; dmPGE2 100 uM during transduction, GFP lentivirus MOI 25): 3.55
percentage of cells positive for GFP (CD34+ cells [2]; dmPGE2 1 uM, Pre-Stim w/PGE2 Minus 2 Hr (22-24 hours of culture)): 25.74%
percentage of cells positive for GFP (CD34+ cells [2]; dmPGE2 1 uM, Virus and PGE2 24 Hr (24-48 hours of culture)): 32.03%
percentage of cells positive for GFP (CD34+ cells [2]; dmPGE2 1 uM, Virus and PGE2 Plus 1 Hr (24-25 hours of culture)): 2.94%
percentage of cells positive for GFP (CD34+ cells [2]; dmPGE2 1 uM, Virus and PGE2 Plus 2 Hr (24-26 hours of culture)): 7.17%
percentage of cells positive for GFP (CD34+ cells [2]; dmPGE2 1 uM, Virus and PGE2 Plus 4 Hr (24-28 hours of culture)): 21.10%
percentage of cells positive for GFP (CD34+ cells [2]; dmPGE2 12.5 uM, Pre-Stim w/PGE2 Minus 1 Hr (23-24 hours of culture)): 22.13%
percentage of cells positive for GFP (CD34+ cells [2]; dmPGE2 12.5 uM, Pre-Stim w/PGE2 Minus 2 Hr (22-24 hours of culture)): 30.64%
percentage of cells positive for GFP (CD34+ cells [2]; dmPGE2 12.5 uM, Virus and PGE2 24 Hr (24-48 hours of culture)): 47.42%
percentage of cells positive for GFP (CD34+ cells [2]; dmPGE2 12.5 uM, Virus and PGE2 Plus 1 Hr (24-25 hours of culture)): 1.97%
percentage of cells positive for GFP (CD34+ cells [2]; dmPGE2 12.5 uM, Virus and PGE2 Plus 2 Hr (24-26 hours of culture)): 5.32%
percentage of cells positive for GFP (CD34+ cells [2]; dmPGE2 12.5 uM, Virus and PGE2 Plus 4 Hr (24-28 hours of culture)): 28.08%
percentage of cells positive for GFP (CD34+ cells [2]; dmPGE2 25 uM, Pre-Stim w/PGE2 Minus 1 Hr (23-24 hours of culture)): 24.05%
percentage of cells positive for GFP (CD34+ cells [2]; dmPGE2 25 uM, Pre-Stim w/PGE2 Minus 2 Hr (22-24 hours of culture)): 31.90%
percentage of cells positive for GFP (CD34+ cells [2]; dmPGE2 25 uM, Virus and PGE2 24 Hr (24-48 hours of culture)): 50.69%
percentage of cells positive for GFP (CD34+ cells [2]; dmPGE2 25 uM, Virus and PGE2 Plus 1 Hr (24-25 hours of culture)): 1.76%
percentage of cells positive for GFP (CD34+ cells [2]; dmPGE2 25 uM, Virus and PGE2 Plus 2 Hr (24-26 hours of culture)): 4.76%
percentage of cells positive for GFP (CD34+ cells [2]; dmPGE2 25 uM, Virus and PGE2 Plus 4 Hr (24-28 hours of culture)): 27.46%
percentage of cells positive for GFP (CD34+ cells [2]; dmPGE2 50 uM, Pre-Stim w/PGE2 Minus 1 Hr (23-24 hours of culture)): 22.98%
percentage of cells positive for GFP (CD34+ cells [2]; dmPGE2 50 uM, Pre-Stim w/PGE2 Minus 2 Hr (22-24 hours of culture)): 31.85%
percentage of cells positive for GFP (CD34+ cells [2]; dmPGE2 50 uM, Virus and PGE2 24 Hr (24-48 hours of culture)): 54.63%
percentage of cells positive for GFP (CD34+ cells [2]; dmPGE2 50 uM, Virus and PGE2 Plus 1 Hr (24-25 hours of culture)): 1.85%
percentage of cells positive for GFP (CD34+ cells [2]; dmPGE2 50 uM, Virus and PGE2 Plus 2 Hr (24-26 hours of culture)): 4.23%
percentage of cells positive for GFP (CD34+ cells [2]; dmPGE2 50 uM, Virus and PGE2 Plus 4 Hr (24-28 hours of culture)): 27.45%
percentage of cells positive for GFP (CD34+ cells [2]; dmPGE2 100 uM, Pre-Stim w/PGE2 Minus 1 Hr (23-24 hours of culture)): 25.14%
percentage of cells positive for GFP (CD34+ cells [2]; dmPGE2 100 uM, Pre-Stim w/PGE2 Minus 2 Hr (22-24 hours of culture)): 34.85%
percentage of cells positive for GFP (CD34+ cells [2]; dmPGE2 100 uM, Virus and PGE2 24 Hr (24-48 hours of culture)): 76.44%
percentage of cells positive for GFP (CD34+ cells [2]; dmPGE2 100 uM, Virus and PGE2 Plus 1 Hr (24-25 hours of culture)): 2.48%
percentage of cells positive for GFP (CD34+ cells [2]; dmPGE2 100 uM, Virus and PGE2 Plus 2 Hr (24-26 hours of culture)): 4.02%
percentage of cells positive for GFP (CD34+ cells [2]; dmPGE2 100 uM, Virus and PGE2 Plus 4 Hr (24-28 hours of culture)): 21.57%
improvement of viral transduction (CD34+ cells [2]; time windows commonly used for promoting hematopoietic stem cell activity, on the order of one to two hours): unable to improve viral transduction
